Assay results: patent publication US10485235B2, “Aryloxypyrimidinyl ethers as herbicides” (FMC Corporation, priority 2015, dated 2019)

Columns and labels:
Assay type in all cases: in vivo
[1] = system: barnyardgrass (Echinochloa crus-galli); assay: Test A preemergence, barnyardgrass; conditions: Preemergence, 0 to 100 scale (0 no effect, 100 complete control)
Summary of the method: (§1)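 Pre- and postemergence greenhouse screen in loam–sand soil. Test chemicals were delivered in a non-phytotoxic solvent with surfactant, preemergence as a directed spray onto seeded soil and postemergence onto 2–10 cm seedlings. Injury was judged by eye after ~10 days on a 0–100 scale.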

kochia (Kochia scoparia) [2] = assay: Test A preemergence, kochia; conditions: Preemergence, 0 to 100 scale (0 no effect, 100 complete control)
Summary of the method: as §1

[3] = system: ragweed (common ragweed, Ambrosia elatior); assay: Test A preemergence, ragweed; conditions: Preemergence, 0 to 100 scale (0 no effect, 100 complete control)
Summary of the method: as §1

[4] = system: ryegrass, Italian (Italian ryegrass, Lolium multiflorum); assay: Test A preemergence, Italian ryegrass; conditions: Preemergence, 0 to 100 scale (0 no effect, 100 complete control)
Summary of the method: as §1

[5] = system: foxtail, giant (giant foxtail, Setaria faberii); assay: Test A preemergence, giant foxtail; conditions: Preemergence, 0 to 100 scale (0 no effect, 100 complete control)
Summary of the method: as §1

[6] = system: pigweed (Amaranthus retroflexus); assay: Test A preemergence, pigweed; conditions: Preemergence, 0 to 100 scale (0 no effect, 100 complete control)
Summary of the method: as §1

[7] = system: barnyardgrass (Echinochloa crus-galli); assay: Test A postemergence, barnyardgrass
Summary of the method: as §1

kochia (Kochia scoparia) [8] = assay: Test A postemergence, kochia
Summary of the method: as §1

[9] = system: ragweed (common ragweed, Ambrosia elatior); assay: Test A postemergence, ragweed
Summary of the method: as §1

[10] = system: ryegrass, Italian (Italian ryegrass, Lolium multiflorum); assay: Test A postemergence, Italian ryegrass
Summary of the method: as §1

[11] = system: foxtail, giant (giant foxtail, Setaria faberii); assay: Test A postemergence, giant foxtail
Summary of the method: as §1

[12] = system: pigweed (Amaranthus retroflexus); assay: Test A postemergence, pigweed
Summary of the method: as §1

[13] = system: wheat (Triticum aestivum); assay: Test A postemergence, wheat
Summary of the method: as §1

corn (Zea mays) = assay: Test A postemergence, corn
Summary of the method: as §1

[14] = system: blackgrass (Alopecurus myosuroides); assay: Test A postemergence, blackgrass
Summary of the method: as §1

[15] = system: galium (catchweed bedstraw, Galium aparine); assay: Test A postemergence, galium
Summary of the method: as §1

rice (Oryza sativa) = assay: Test B flooded paddy test, rice; conditions: 250 g ai/ha, Flood; visual rating after 13 to 15 days; scale 0 to 100, 0 is no effect, 100 is complete control
Summary of the method: (§2)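 Plants grown to 2-leaf stage, pots flooded to 3 cm above soil and compound applied directly to paddy water, depth maintained throughout. After 13-15 days in greenhouse, visual rating against untreated controls on 0-100 scale (0 no effect, 100 complete control).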

[16] = system: sedge, umbrella (small-flower umbrella sedge, Cyperus difformis); assay: Test B flooded paddy test, umbrella sedge; conditions: 250 g ai/ha, Flood; visual rating after 13 to 15 days; scale 0 to 100, 0 is no effect, 100 is complete control
Summary of the method: as §2

[17] = system: ducksalad (Heteranthera limosa); assay: Test B flooded paddy test, ducksalad; conditions: 250 g ai/ha, Flood; visual rating after 13 to 15 days; scale 0 to 100, 0 is no effect, 100 is complete control
Summary of the method: as §2

[18] = system: barnyardgrass (Echinochloa crus-galli); assay: Test B flooded paddy test, barnyardgrass; conditions: 250 g ai/ha, Flood; visual rating after 13 to 15 days; scale 0 to 100, 0 is no effect, 100 is complete control
Summary of the method: as §2

[19] = 125 g ai/ha, postemergence, 0 to 100 scale, 0 is no effect, 100 is complete control, approximately 10 days
[20] = 500 g ai/ha, postemergence, 0 to 100 scale, 0 is no effect, 100 is complete control, approximately 10 days
[21] = Postemergence, 31 g ai/ha, 0 to 100 scale (0 no effect, 100 complete control)

| SMILES | Plant response rating, Barnyardgrass ([1]; 125 g ai/ha) | Plant response rating, Kochia (kochia (Kochia scoparia) [2]; 125 g ai/ha) | Plant response rating, Ragweed ([3]; 125 g ai/ha) | Plant response rating, Ryegrass, Italian ([4]; 125 g ai/ha) | Plant response rating, Foxtail, Giant ([5]; 125 g ai/ha) | Plant response rating, Pigweed ([6]; 125 g ai/ha) | Plant response rating, Barnyardgrass [7, 19] | Plant response rating, Kochia (kochia (Kochia scoparia) [8]; [19]) | Plant response rating, Ragweed [9, 19] | Plant response rating, Ryegrass, Italian [10, 19] | Plant response rating, Foxtail, Giant [11, 19] | Plant response rating, Pigweed [12, 19] | Plant response rating, Wheat [13, 19] | Plant response rating, Corn (corn (Zea mays); [19]) | Plant response rating, Blackgrass [14, 19] | Plant response rating, Galium [15, 19] | Plant response rating, Rice (rice (Oryza sativa)) | Plant response rating, Sedge, Umbrella [16] | Plant response rating, Ducksalad [17] | Plant response rating, Barnyardgrass [18] | also measured |
| --- | --- | --- | --- | --- | --- | --- | --- | --- | --- | --- | --- | --- | --- | --- | --- | --- | --- | --- | --- | --- | --- |
| CC(C)CCCOc1c(Br)cccc1Oc1ncc(Cl)cn1 [Compound 11] | 20 | 0 | 0 | 0 | 90 | 0 | 10 | 20 | 0 | 0 | 20 | 60 | 0 | 30 | 0 | 70 | 0 | 0 | 0 | 0 | Plant response rating, Barnyardgrass ([1]; 500 g ai/ha): 90; Plant response rating, Kochia (kochia (Kochia scoparia) [2]; 500 g ai/ha): 0; Plant response rating, Ragweed ([3]; 500 g ai/ha): 0; Plant response rating, Ryegrass, Italian ([4]; 500 g ai/ha): 30; Plant response rating, Foxtail, Giant ([5]; 500 g ai/ha): 100; Plant response rating, Pigweed ([6]; 500 g ai/ha): 80; Plant response rating, Barnyardgrass [7, 20]: 90; Plant response rating, Kochia (kochia (Kochia scoparia) [8]; [20]): 90; Plant response rating, Ragweed [9, 20]: 0; Plant response rating, Ryegrass, Italian [10, 20]: 20; Plant response rating, Foxtail, Giant [11, 20]: 60; Plant response rating, Pigweed [12, 20]: 100; Plant response rating, Wheat [13, 20]: 20; Plant response rating, Corn (corn (Zea mays); [20]): 30; Plant response rating, Blackgrass [14, 20]: 40; Plant response rating, Galium [15, 20]: 100 |
| CCC(=O)COc1c(Br)cccc1Oc1ncc(Cl)cn1 [Compound 76] | 40 | 0 | 0 | 10 | 70 | 80 | 20 | 10 | 0 | 0 | 40 | 30 | 0 | 10 | 10 | 20 | 10 | 70 | 90 | 10 | Plant response rating, Barnyardgrass ([1]; 31 g ai/ha): 20; Plant response rating, Kochia (kochia (Kochia scoparia) [2]; 31 g ai/ha): 0; Plant response rating, Ragweed ([3]; 31 g ai/ha): 0; Plant response rating, Ryegrass, Italian ([4]; 31 g ai/ha): 0; Plant response rating, Foxtail, Giant ([5]; 31 g ai/ha): 10; Plant response rating, Pigweed ([6]; 31 g ai/ha): 0; Plant response rating, Barnyardgrass [7, 21]: 0; Plant response rating, Kochia (kochia (Kochia scoparia) [8]; [21]): 0; Plant response rating, Ragweed [9, 21]: 0; Plant response rating, Ryegrass, Italian [10, 21]: 0; Plant response rating, Foxtail, Giant [11, 21]: 10; Plant response rating, Pigweed [12, 21]: 10; Plant response rating, Wheat [13, 21]: 0; Plant response rating, Corn (corn (Zea mays); [21]): 0; Plant response rating, Blackgrass [14, 21]: 0; Plant response rating, Galium [15, 21]: 10 |
